Source: article PMC2801607 (Bioorganic & medicinal chemistry letters, 2009)
Read-outs that look alike come from different tables or passages of the source.

Experiments:
[1] = molecular target: Mycobacterium tuberculosis phosphatase PtpA (Mycobacterium tuberculosis, UniProt P9WIA1); assay: PtpA continuous inhibition assay with pNPP substrate; format: biochemical; conditions: PtpA dose-response curve, variable slope (GraphPad Prism)
[2] = molecular target: T1, PTP1B (Homo sapiens, UniProt P18031); assay: Selectivity panel: PTP1B inhibition; format: biochemical
T1 sequence (P18031 1-435): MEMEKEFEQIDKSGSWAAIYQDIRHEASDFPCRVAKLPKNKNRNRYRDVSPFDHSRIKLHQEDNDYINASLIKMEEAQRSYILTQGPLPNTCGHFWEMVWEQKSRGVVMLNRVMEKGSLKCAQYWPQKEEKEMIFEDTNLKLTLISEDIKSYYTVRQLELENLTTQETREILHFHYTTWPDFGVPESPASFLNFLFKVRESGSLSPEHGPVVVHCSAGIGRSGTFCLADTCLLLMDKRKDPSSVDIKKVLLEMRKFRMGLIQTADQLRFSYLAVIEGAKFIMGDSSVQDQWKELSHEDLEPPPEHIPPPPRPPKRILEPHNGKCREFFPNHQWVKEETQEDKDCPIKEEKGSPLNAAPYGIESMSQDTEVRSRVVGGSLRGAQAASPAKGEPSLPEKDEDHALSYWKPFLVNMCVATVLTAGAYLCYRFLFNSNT

[3] = molecular target: T2, Tc-Ptp (Homo sapiens, UniProt P17706); assay: Selectivity panel: Tc-Ptp inhibition; format: biochemical
T2 sequence (P17706 1-415): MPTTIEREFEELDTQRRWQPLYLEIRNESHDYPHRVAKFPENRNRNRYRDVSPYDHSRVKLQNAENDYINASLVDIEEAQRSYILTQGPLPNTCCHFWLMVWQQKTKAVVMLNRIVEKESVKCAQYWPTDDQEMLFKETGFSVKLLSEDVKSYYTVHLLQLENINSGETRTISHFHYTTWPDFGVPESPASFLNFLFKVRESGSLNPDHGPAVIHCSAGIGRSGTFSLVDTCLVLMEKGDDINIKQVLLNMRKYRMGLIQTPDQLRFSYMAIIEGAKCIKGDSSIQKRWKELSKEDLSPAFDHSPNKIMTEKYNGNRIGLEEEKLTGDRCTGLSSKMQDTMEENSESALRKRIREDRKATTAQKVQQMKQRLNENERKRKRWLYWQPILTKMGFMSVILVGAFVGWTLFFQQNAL

[4] = molecular target: LAR (Homo sapiens, UniProt P10586); assay: Selectivity panel: LAR inhibition; format: biochemical
[5] = tested on: Mtb PtpB; assay: biochemical; format: biochemical, Mycobacterium tuberculosis
[6] = molecular target: Mtb PtpB (Mycobacterium tuberculosis, UniProt I6WXK4); assay: biochemical; format: biochemical
[7] = molecular target: VHR (Homo sapiens, UniProt P51452); assay: Selectivity panel: VHR inhibition; format: biochemical
[8] = molecular target: T3, CD45 (Homo sapiens, UniProt P08575); assay: Selectivity panel: CD45 inhibition; format: biochemical
T3 sequence (P08575 26-1306): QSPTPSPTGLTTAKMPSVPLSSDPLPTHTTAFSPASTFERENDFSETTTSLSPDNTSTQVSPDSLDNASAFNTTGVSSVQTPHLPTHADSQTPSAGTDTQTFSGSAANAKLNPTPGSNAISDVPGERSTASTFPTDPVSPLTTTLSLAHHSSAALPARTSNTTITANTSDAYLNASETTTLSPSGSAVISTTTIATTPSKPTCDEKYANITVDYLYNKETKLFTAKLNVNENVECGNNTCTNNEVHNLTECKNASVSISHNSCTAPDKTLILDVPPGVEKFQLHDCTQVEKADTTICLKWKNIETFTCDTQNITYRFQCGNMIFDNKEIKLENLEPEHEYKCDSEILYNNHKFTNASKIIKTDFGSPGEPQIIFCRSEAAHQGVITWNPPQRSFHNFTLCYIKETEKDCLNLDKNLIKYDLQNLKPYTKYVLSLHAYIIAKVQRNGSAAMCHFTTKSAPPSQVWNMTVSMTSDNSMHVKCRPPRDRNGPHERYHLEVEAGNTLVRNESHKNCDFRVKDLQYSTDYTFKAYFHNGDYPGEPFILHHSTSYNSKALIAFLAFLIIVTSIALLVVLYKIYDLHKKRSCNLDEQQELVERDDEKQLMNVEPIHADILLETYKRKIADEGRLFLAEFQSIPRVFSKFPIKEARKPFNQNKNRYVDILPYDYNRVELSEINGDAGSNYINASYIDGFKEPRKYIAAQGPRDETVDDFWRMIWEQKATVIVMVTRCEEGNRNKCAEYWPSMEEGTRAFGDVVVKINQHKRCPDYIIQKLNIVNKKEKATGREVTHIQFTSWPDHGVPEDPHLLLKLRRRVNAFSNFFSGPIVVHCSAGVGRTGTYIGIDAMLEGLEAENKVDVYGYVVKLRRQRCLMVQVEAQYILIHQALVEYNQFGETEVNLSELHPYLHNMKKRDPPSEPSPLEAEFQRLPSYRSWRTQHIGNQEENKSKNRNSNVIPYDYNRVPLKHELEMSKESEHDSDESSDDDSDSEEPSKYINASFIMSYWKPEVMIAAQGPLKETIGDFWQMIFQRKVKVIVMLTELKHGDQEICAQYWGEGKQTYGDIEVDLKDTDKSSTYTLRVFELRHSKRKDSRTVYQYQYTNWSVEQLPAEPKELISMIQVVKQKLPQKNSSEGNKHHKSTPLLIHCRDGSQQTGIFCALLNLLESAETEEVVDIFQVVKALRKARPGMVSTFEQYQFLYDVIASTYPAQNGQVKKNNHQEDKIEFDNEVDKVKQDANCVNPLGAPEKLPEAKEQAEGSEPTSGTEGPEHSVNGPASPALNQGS

[9] = tested on: panel of human tyrosine and dual-specificity phosphatases; format: biochemical

Sequence of Mycobacterium tuberculosis phosphatase PtpA (P9WIA1 whole entry): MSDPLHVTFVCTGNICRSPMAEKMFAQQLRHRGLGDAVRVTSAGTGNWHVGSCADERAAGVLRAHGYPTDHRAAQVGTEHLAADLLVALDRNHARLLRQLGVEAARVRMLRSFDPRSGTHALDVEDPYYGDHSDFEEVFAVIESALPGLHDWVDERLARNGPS
Sequence of Mtb PtpB (Mycobacterium tuberculosis, UniProt I6WXK4) (I6WXK4 whole entry, looked up): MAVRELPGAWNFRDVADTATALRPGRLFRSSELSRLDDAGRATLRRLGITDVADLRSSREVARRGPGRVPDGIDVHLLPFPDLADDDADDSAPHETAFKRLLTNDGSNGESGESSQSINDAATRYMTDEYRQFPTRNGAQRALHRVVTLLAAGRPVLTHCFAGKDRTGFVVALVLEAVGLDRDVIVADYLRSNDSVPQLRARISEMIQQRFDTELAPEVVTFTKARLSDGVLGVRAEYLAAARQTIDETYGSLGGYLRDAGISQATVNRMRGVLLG
Sequence of VHR (P51452 whole entry): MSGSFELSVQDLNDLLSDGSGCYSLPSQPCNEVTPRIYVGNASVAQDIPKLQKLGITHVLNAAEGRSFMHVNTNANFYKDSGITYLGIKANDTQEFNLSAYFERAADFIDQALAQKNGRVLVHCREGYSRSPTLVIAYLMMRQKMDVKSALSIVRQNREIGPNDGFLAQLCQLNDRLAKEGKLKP
Sequence of LAR (P10586 30-1907): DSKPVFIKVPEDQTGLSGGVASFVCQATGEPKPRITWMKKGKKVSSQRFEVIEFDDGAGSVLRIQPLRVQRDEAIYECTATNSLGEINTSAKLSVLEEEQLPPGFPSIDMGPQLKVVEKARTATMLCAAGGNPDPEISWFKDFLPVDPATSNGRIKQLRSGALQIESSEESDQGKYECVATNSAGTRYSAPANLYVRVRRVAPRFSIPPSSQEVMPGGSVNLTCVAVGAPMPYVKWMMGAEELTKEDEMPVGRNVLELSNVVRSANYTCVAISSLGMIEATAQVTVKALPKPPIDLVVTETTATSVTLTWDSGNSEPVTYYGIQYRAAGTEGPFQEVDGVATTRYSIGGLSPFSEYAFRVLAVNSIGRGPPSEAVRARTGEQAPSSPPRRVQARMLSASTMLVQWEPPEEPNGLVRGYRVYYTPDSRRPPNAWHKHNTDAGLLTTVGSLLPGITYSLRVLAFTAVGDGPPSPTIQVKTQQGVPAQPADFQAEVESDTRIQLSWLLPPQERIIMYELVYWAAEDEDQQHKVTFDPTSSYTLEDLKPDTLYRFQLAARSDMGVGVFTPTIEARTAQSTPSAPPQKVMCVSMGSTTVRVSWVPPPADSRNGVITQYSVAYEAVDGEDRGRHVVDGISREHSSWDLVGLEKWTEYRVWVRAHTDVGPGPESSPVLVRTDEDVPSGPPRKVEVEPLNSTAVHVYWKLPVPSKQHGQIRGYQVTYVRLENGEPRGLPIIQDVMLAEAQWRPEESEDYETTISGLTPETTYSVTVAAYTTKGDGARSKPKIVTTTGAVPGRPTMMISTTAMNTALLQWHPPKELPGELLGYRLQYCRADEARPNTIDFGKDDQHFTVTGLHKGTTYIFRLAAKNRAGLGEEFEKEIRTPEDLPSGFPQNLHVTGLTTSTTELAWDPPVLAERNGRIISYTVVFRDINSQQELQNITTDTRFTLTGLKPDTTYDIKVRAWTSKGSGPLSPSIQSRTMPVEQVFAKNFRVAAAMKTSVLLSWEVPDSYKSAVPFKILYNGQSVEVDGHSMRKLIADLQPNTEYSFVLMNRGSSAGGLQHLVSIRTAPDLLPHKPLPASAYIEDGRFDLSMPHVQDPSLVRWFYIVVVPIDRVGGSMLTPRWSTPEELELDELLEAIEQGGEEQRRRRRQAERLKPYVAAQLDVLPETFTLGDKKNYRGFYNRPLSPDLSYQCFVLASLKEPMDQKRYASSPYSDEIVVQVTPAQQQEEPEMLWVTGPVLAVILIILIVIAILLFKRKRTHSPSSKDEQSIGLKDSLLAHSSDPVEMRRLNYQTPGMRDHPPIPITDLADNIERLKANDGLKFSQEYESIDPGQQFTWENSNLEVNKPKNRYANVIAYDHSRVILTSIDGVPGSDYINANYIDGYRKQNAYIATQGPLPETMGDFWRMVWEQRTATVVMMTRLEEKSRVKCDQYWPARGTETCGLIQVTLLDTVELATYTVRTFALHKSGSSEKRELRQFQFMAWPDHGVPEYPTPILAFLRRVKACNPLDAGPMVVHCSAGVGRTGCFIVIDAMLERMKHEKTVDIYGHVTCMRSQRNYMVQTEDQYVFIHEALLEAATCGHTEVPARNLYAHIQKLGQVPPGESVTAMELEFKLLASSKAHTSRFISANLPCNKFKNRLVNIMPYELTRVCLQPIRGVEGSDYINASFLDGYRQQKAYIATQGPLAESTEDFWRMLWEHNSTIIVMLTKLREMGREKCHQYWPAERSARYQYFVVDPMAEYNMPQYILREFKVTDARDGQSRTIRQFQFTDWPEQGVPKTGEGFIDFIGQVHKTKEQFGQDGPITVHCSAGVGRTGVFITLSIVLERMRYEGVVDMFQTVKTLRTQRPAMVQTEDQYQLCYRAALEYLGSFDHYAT

Structure (SMILES) | Hill coefficient h [1] | Selectivity [2] | Selectivity [3] | Selectivity [4] | Selectivity [5] | Ki [6] [µM] | Ki ([6]; PtpB) | Selectivity [7] | Selectivity [8] | Selectivity for PtpA versus panel of phosphatases [9] [fold]
O=C(Nc1ccc(C(F)(F)P(=O)(O)O)cc1)Nc1cc(C(F)(F)F)cc(C(F)(F)F)c1 [Compound 43] | −1.1 ± 0.2 |  |  |  |  |  |  |  |  | 
O=C(Nc1cc(C(F)(F)F)c(Br)c(C(F)(F)F)c1)c1ccc(C(F)(F)P(=O)(O)O)cc1 [Compound 38] | −1.0 ± 0.1 | >70 | >70 | >70 | >70 | > 100 | did not inhibit | >70 | >70 | > 70
